The test system of series [1] is Alzheimer-type dementia patients. An excerpt:
Patients were selected on the basis of the following three criteria.
(1) Deterioration in the score occurs such that the ADAS-cog score based on formula [70−(MMSE×2.33)] (J. Caro et al., BMC Neurol 2002; 2:6.) or the ADAS-cog score calculated in terms of MMSE (Mini-Mental State Examination) exceeds 10.
Finally, 11 patients were selected, and treated with H2 gas.
Since the probability of suffering complications increases as the concentration of lithium in blood increases, the dosage of lithium carbonate was reduced (W. S. Waring, Toxicol Rev 2006; 25:221-230.). The patients of the treatment group were given oral administration of a 200 mg tablet of lithium carbonate (Li2CO3) (Mitsubishi Tanabe Pharma Corporation) twice a day and inhalation of 3% H2 twice a day. The test period was 6 months. As the gas containing H2, H2 gas (3%) containing 21% oxygen was generated using a portable H2 generator (Nishijima/Ecore Gas Hydrogen Generator) (H. Ono et al., J Stroke Cerebrovasc Dis 2017; 26:2587-2594.). […] Since lithium carbonate is used as a therapeutic agent for depression and mania (bipolar disorder), and it was reported that patients who ingested lithium carbonate less likely developed dementia, lithium carbonate was used in this Example.
The patients were evaluated by a blind method using the ADAS-cog score.
The ADAS-cog test was conducted every 1 to 2 months. The efficacy of treatment with respect to the ADAS-cog score was determined by comparing the ADAS-cog score at the start of the test with two or three tests during treatment.

Series [2] deals with Alzheimer-type dementia. As to conditions: cited from earlier work.
For series [3] the following is noted: inhalation of H2 gas (3%) containing 21% oxygen; cited from earlier work.
The subject of series [4] is dementia patients. As to conditions: hydrogen gas about 3 to 4% inhaled 1 hour twice a day, 6-month treatment period, six patients.
Source text: Patients (outpatients in Iryohojin Shadanshinwakai Nishijima Byoin (Numazu-shi, Shizuoka)) in whom rapid deterioration (deterioration by 3 or more points over 1 year) in a cognitive function test such as MMSE or ADAS-cog occured although existing four agents for dementia were used over a long period of time, and improvement is not attained by other ordinary treatment methods.
Patients for whom it is considered difficult to repeatedly inhale hydrogen gas over a long period of time because of severe medical disease, chronic chest disease (chronic obstructive pulmonary disease (COPD), asthma or the like), mouth inflammation or the like.
Patients for whom it is determined from a score in the ADAS-cog cognitive function test that a therapeutic effect is achieved.
[5] abbreviates: 11 patients including the unresponsive patient, at completion of H2 treatment.

Molecules are shown by their SMILES.

As to `O=C([O-])[O-].[Li+].[Li+]` [lithium, lithium carbonate, reference compound], the “Cognitive function (ADAS-cog) with lithium used alone” value in series [1] (after H2 treatment was stopped, lithium alone) was “the cognitive function was not improved”.
For `COc1cc2c(cc1OC)C(=O)C(CC1CCN(Cc3ccccc3)CC1)C2` (centres unmarked) [Donepezil], the “ADAS-cog score of the administration group” value in series [2] (after 6 months) is on record as “turned back to the initial value”. In addition, the “Change of ADAS-cog score” value in series [2] (after 6 weeks) is on record as −3 points.
Take `[HH]` [H2, hydrogen gas]: in series [1] (setting [5]), the “Average change of ADAS-cog score with respect to the initial score” value is on record as −3.4 and the “Average change of ADAS-cog score with respect to the worst score” value is −8.5. Further, in series [1] (at the end of the H2 treatment period, 11 patients), the “Patients whose ADAS-cog score was improved (decreased) from that at the start time” value was “seven”. Further, the “Worst score: B (ADAS-cog), average” value in series [1] (average of 11 patients) stood at 39.2. For the same compound, the “Final score: C (ADAS-cog), average” value in series [1] (average of 11 patients at completion of H2 treatment) was found to be 30.7. The “Patients with improvement in the ADAS-cog score” value in series [1] (combination therapy with H2 and lithium, Alzheimer-type dementia patients) is 10 out of 11. Besides, in series [3], the Blood concentration entry was “confirmed to increase”. The “Therapeutic effect judged from ADAS-cog score (effective cases)” value in series [4] is recorded as “effective in all of the six patients”.

The values are drawn from US20200345761A1, “PREVENTIVE AND/OR THERAPEUTIC AGENT FOR DEMENTIA” (MITOS CO., LTD., priority 2017, published 2020).
